Laboratory results: patent US9493464B2, “Wee1 degradation inhibitors” (The Scripps Research Institute, priority 2012, dated 2016)
Where “and” joins values, the source holds several entries; their conditions need not be identical. Identical values can stand only once. Like-named read-outs stand apart in the source and are kept apart here.

Experiments:
[1] = system: GCPs in organotypic cerebellar slices; assay: Organotypic cerebellar slice GCP migration assay; assay type: cell-based, mice; conditions: 500 nM, 48 hours; result in words
Text: Cerebella from P7 mice were isolated and sliced using a vibratome. Subsequently, slices were electroporated with venus-GFP to visualize GCPs. […] Many GCPs migrate to the Purkinje cell layer in DMSO treated cells, but fewer do so in SR-653234 or SR-1277 treated slices. […] Phospho-Y15 Cdc2 is a measure of Wee1 activity. Skp-1 is used as a loading control.

K328M-Wee1-luciferase = assay: Wee1-luciferase assay (stabilization of K328M-Wee1-luciferase); assay type: cell-based; conditions: for EC50: read-out: EC50 for stabilization of K328M-Wee1-luciferase
Text: Steady-state level of K328M-Wee1-Luciferase (K328M-Wee1-Luc) was divided by Luciferase level (Luc) and plotted.
Similar assays have previously been described; PubChem AID 1807.

FLT3 = target: T1, FLT3 (Homo sapiens, UniProt P36888); assay: In vitro kinase assay, FLT3 (Reaction Biology Corporation); assay type: biochemical; conditions: 10 μM ATP; read-out: FLT3 IC50
T1 construct: Reaction Biology Corporation (contract assay)
T1 sequence (P36888 27-993): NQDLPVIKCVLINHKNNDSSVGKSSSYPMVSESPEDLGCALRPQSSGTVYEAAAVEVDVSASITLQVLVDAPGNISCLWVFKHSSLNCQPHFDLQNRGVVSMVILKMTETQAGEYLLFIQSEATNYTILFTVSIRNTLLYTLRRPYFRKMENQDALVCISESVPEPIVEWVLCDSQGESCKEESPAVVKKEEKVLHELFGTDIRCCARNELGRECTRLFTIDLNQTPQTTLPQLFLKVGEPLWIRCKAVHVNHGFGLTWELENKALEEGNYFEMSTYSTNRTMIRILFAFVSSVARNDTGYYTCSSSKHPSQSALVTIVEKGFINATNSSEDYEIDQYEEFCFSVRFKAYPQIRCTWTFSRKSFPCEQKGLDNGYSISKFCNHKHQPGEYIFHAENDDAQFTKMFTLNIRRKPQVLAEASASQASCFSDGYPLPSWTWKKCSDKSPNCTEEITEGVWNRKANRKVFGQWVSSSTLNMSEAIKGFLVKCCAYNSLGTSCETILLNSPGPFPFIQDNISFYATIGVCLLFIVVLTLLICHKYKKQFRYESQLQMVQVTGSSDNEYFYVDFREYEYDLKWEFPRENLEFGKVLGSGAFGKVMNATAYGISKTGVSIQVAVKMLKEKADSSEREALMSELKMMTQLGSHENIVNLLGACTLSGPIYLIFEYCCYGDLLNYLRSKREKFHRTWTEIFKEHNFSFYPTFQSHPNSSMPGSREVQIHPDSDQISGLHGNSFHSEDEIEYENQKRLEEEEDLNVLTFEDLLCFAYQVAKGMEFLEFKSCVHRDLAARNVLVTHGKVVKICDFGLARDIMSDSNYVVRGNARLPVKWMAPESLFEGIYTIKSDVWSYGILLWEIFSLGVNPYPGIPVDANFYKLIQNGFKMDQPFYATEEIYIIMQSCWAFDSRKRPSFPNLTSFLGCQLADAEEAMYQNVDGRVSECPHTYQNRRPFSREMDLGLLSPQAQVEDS
Method: Compounds were tested in 10-dose IC50 mode with 3-fold serial dilution starting at 50 μM. […] Reactions were carried out at 10 μM ATP. Average and standard deviations of reactions carried out in triplicate are shown.
In vitro kinase assay to detect CK1 or FLT3 activity: CK1 and FLT3 assays as well as complete kinase profile of 296 kinases was performed by Reaction Biology Corporation. For FLT3 20 μM final Abltide was used, sequence: [[…]]. For CK1 (all isoforms) 20 μM CK1 tide was used, sequence: [KRRRAL[pS]VASLPGL] in a standard kinase assay with ^32P-ATP and purified kinase. Incorporation of ^32P-ATP into the peptide was measured after a filter-binding assay. In-house CK1d inhibition assays were performed using a standard homogenous time-resolved fluorescence resonance energy transfer (TR-FRET) format in 50 mM Hepes, pH 7.0, 2.5 mM MgCl2, 0.1 mg/ml bovine serum albumin, 1 mM DL-dithiothreitol, 0.01% Triton X-100 (all from Sigma-Aldrich). Briefly, the CK1δ substrate (DEKTDDE, containing CK1 consensus sequence; 4 μL of a 500 nM stock solution) is labeled with a small Ulight acceptor dye (PerkinElmer). In the presence of 10 μL of 10 nM CK1δ, the Ulight peptide is phosphorylated at a single amino acid that is specifically recognized by a europium chelate (Eu)-labeled phosphospecific antibody. Assays were performed in the presence of 2 μL of compound at different (measured) concentrations, and reactions were stopped by adding 10 μL of 4 nM Eu-anti-p-Topo-IIa (PerkinElmer) in Lance Detection Buffer (Perkin Elmer). Upon excitation of the Eu-labeled antibody, energy is transferred to the acceptor dye resulting in the emission of detected light at 665 nm.

Compound	GCP migration to the Purkinje cell layer [1]	% Inhibition, Wee1 Degradation (K328M-Wee1-luciferase; 0.25 µM) [%]	EC50 (K328M-Wee1-luciferase) [nM]	IC50 (FLT3)	EC50 (K328M-Wee1-luciferase; HeLa cells) [nM]	stabilization of K328M-Wee1-luciferase (K328M-Wee1-luciferase; HeLa cells, result in words)	% Inhibition, Wee1 Degradation (K328M-Wee1-luciferase; at 250 nM, reported relative to SR-1277 = 100%) [%]
O=[N+]([O-])c1cccc2[nH]c(CNc3nc(N4CCOCC4)nc4c3ncn4-c3ccsc3)nc12 [SR-1277]	fewer do so	100.0	40	305 nM			
c1ccc2[nH]c(CNc3nc(N4CCOCC4)nc4c3ncn4-c3ccsc3)nc2c1 [SR-653234]	fewer do so			161 nM and 100 nM	624	stabilizes Wee1-luciferase	56.8
